Assay results as given in ChEMBL document CHEMBL2177024 (J Med Chem, 2012).

Columns and labels:
Beta-secretase 1 [1] = molecular target: T1, Beta-secretase 1 (Homo sapiens, UniProt P56817)
Beta-secretase 1 [2] = molecular target: T1, Beta-secretase 1; remark: listed apart in the source
Description: Inhibition of BACE1 in human neuroblastoma cells

Cathepsin D = Cathepsin D (Homo sapiens, UniProt P07339)
Chain of Cathepsin D (P07339 65-162 limits assumed): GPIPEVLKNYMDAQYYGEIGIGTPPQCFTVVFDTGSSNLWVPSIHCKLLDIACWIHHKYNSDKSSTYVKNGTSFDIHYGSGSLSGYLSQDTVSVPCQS
Chain of Cathepsin D (P07339 169-412 limits assumed): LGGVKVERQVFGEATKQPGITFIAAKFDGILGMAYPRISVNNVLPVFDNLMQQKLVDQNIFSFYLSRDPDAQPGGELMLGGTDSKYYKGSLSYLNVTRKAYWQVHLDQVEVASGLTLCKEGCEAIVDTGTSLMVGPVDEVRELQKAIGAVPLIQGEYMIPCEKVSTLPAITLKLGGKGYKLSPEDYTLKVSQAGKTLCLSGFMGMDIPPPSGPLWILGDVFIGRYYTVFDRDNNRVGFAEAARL
Description: Inhibition of human cathepsin D

T1 sequence (P56817 whole entry): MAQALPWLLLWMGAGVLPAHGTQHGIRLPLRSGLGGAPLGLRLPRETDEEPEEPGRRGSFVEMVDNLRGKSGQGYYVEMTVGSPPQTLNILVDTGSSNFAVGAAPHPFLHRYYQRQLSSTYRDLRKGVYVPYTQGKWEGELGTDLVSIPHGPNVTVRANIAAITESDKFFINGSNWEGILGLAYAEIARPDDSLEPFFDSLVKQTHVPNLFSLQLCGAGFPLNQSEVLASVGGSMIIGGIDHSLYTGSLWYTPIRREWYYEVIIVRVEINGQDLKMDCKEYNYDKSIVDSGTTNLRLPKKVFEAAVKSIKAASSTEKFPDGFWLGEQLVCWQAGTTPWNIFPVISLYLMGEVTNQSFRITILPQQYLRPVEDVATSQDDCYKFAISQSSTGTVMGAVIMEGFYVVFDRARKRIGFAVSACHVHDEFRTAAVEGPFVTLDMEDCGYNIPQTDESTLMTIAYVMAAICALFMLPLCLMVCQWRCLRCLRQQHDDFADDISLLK

Row | Ki (Beta-secretase 1 [1]) [nM] | IC50 (Beta-secretase 1 [2]) [nM] | Ki (Cathepsin D) [nM] | Compound
1 | > 1000 |  |  | CC(C)CNC[C@@H](NC[C@H](Cc1ccccc1)NC(=O)c1cc(C(=O)N[C@H](C)c2ccccc2)cc(N(C)S(C)(=O)=O)c1)[C@H](C)O
2 | 0.47 | 14 | 2000 | CCC[C@H](O)[C@H](NC[C@H](Cc1ccccc1)NC(=O)c1cc2c3c(c1)c(CC)cn3CC1(CC1)S(=O)(=O)N2C)C(=O)NC(C)C
